Measured values taken from ChEMBL document CHEMBL5226311, “Recent Progress on Tubulin Inhibitors with Dual Targeting Capabilities for Cancer Therapy” (J Med Chem, 2021).

Experiments:
DLD-1 = assay: Antiproliferative activity against MTAs-resistant human DLD-1 cells overexpressing P-gp assessed as cell growth inhibition; type: functional, cell-based
A 172 = assay: Antiproliferative activity against human A-172 cells assessed as cell growth inhibition; type: functional, cell-based
[1] = Antiproliferative activity against human U87MG Human EGFR vIII cells assessed as cell growth inhibition; type: functional, cell-based
U-251 = assay: Antiproliferative activity against human U-251 cells assessed as cell growth inhibition; type: functional, cell-based
[2] = Antiproliferative activity against human U87 cells assessed as cell growth inhibition; type: functional, cell-based, U-87MG ATCC; conditions: U-87 MG
NCI-H460 [3] = assay: Antitumor activity against human NCI-H460 cells expressing TaxR xenografted in mouse assessed as inhibition of tumor growth at 30 mg/kg relative to control; type: functional; conditions: read-out: TGI
NCI-H460 [4] = assay: Antiproliferative activity against human NCI-H460 cells expressing TaxR assessed as cell growth inhibition; type: functional, cell-based
NCI-H460 [5] = assay: Antitumor activity against human NCI-H460 cells xenografted in mouse assessed as inhibition of tumor growth at 30 mg/kg relative to control; type: functional; conditions: read-out: TGI
NCI-H460 [6] = assay: Antiproliferative activity against human NCI-H460 cells assessed as cell growth inhibition; type: functional, cell-based
JeKo-1 = assay: Antiproliferative activity against human JeKo-1 cells assessed as cell growth inhibition measured after 72 hrs by MTT assay; type: functional, cell-based; conditions: JeKo-1, 72 h
A-375 = assay: Antiproliferative activity against human A-375 cells assessed as cell growth inhibition measured after 72 hrs by MTT assay; type: functional, cell-based; conditions: A-375, 72 h
NCI-H460 [7] = assay: Antiproliferative activity against human NCI-H460 cells assessed as cell growth inhibition measured after 72 hrs by MTT assay; type: functional, cell-based; conditions: NCI-H460, 72 h
HepG2 = assay: Antiproliferative activity against human HepG2 cells assessed as cell growth inhibition measured after 72 hrs by MTT assay; type: functional, cell-based; conditions: HepG2, 72 h
HCT-116 [8] = assay: Antiproliferative activity against human HCT-116 cells assessed as cell growth inhibition measured after 72 hrs by MTT assay; type: functional, cell-based; conditions: HCT-116, 72 h
[9] = Antiproliferative activity against human HBL1 cells assessed as cell growth inhibition measured after 72 hrs by MTT assay; type: functional, cell-based; conditions: HBL1, 72 h
Ramos = assay: Antiproliferative activity against human Ramos cells assessed as cell growth inhibition measured after 72 hrs by MTT assay; type: functional, cell-based
MM1.S = assay: Antiproliferative activity against human MM1.S cells assessed as cell growth inhibition measured after 72 hrs by MTT assay; type: functional, cell-based
MDA-MB-231 = assay: Antiproliferative activity against human MDA-MB-231 cells assessed as cell growth inhibition measured after 72 hrs by MTT assay; type: functional, cell-based; conditions: MDA-MB-231, 72 h
A2780S = assay: Antiproliferative activity against human A2780S cells assessed as cell growth inhibition measured after 72 hrs by MTT assay; type: functional, cell-based
MV4-11 = assay: Antiproliferative activity against human MV4-11 cells assessed as cell growth inhibition measured after 72 hrs by MTT assay; type: functional, cell-based; conditions: MV4-11, 72 h
RPMI-8226 = assay: Antiproliferative activity against human RPMI-8226 cells assessed as cell growth inhibition measured after 72 hrs by MTT assay; type: functional, cell-based; conditions: RPMI-8226, 72 h
HT-29 = assay: Antiproliferative activity against human HT-29 cells assessed as cell growth inhibition measured after 72 hrs by MTT assay; type: functional, cell-based; conditions: HT-29, 72 h
SK-OV-3 = assay: Antiproliferative activity against human SK-OV-3 cells assessed as cell growth inhibition measured after 72 hrs by MTT assay; type: functional, cell-based; conditions: SK-OV-3, 72 h
[10] = Antiproliferative activity against human LAMA84-s cells assessed as cell growth inhibition measured after 72 hrs by MTT assay; type: functional, cell-based
K562 [11] = assay: Antiproliferative activity against human K562 cells assessed as cell growth inhibition measured after 72 hrs by MTT assay; type: functional, cell-based; conditions: K562, 72 h
[12] = Antiproliferative activity against human ARD cells assessed as cell growth inhibition measured after 72 hrs by MTT assay; type: functional, cell-based
U-266 = assay: Antiproliferative activity against human U-266 cells assessed as cell growth inhibition measured after 72 hrs by MTT assay; type: functional, cell-based; conditions: U-266, 72 h
MCF7 [13] = assay: Antiproliferative activity against human MCF7 cells assessed as cell growth inhibition measured after 72 hrs by MTT assay; type: functional, cell-based; conditions: MCF7, 72 h
A549 [14] = assay: Antiproliferative activity against human A549 cells assessed as cell growth inhibition measured after 72 hrs by MTT assay; type: functional, cell-based; conditions: A549, 72 h
HL60/MX2 = assay: Antiproliferative activity against human HL60/MX2 cells assessed as cell growth inhibition; type: functional, cell-based
MES-SA/Dx5 = assay: Antiproliferative activity against human MES-SA/Dx5 cells assessed as cell growth inhibition; type: functional, cell-based
[15] = Antiproliferative activity against human KB/VCR cells assessed as cell growth inhibition; type: functional, cell-based
KB [16] = assay: Antiproliferative activity against etoposide-resistant human KB cells assessed as cell growth inhibition; type: functional, cell-based
KB [17] = assay: Antiproliferative activity against human KB cells assessed as cell growth inhibition; type: functional, cell-based
KB [18] = assay: Antiproliferative activity against vincristine-resistant human KB cells assessed as cell growth inhibition; type: functional, cell-based
EA.hy 926 = assay: Antiproliferative activity against human EA.hy 926 cells assessed as cell growth inhibition; type: functional, cell-based
HONE1 cell line = assay: Antiproliferative activity against human HONE1 cell line assessed as cell growth inhibition; type: functional, cell-based
Tubulin [19] = assay: Inhibition of tubulin depolymerization (unknown origin); type: protein-complex assay, Homo sapiens
HCT-116 [20] = assay: Antiproliferative activity against human HCT-116 cells assessed as cell growth inhibition; type: functional, cell-based
A549 [21] = assay: Antiproliferative activity against human A549 cells assessed as cell growth inhibition; type: functional, cell-based
MCF7 [22] = assay: Antiproliferative activity against human MCF7 cells assessed as cell growth inhibition; type: functional, cell-based
[23] = target: Epidermal growth factor receptor (Homo sapiens, UniProt P00533); assay: Inhibition of EGFR (unknown origin)
[24] = target: Vascular endothelial growth factor receptor 2 (Homo sapiens, UniProt P35968); assay: Inhibition of VEGFR2 (unknown origin)
MDA-MB-435 = assay: Antiproliferative activity against human MDA-MB-435 cells assessed as cell growth inhibition; type: functional
SNB-75 = assay: Antiproliferative activity against human SNB-75 cells assessed as cell growth inhibition; type: functional
CCRF-CEM = assay: Antiproliferative activity against human CCRF-CEM cells assessed as cell growth inhibition; type: functional
SF-295 = assay: Antiproliferative activity against human SF-295 cells assessed as cell growth inhibition; type: functional
SW-620 = assay: Antiproliferative activity against human SW-620 cells assessed as cell growth inhibition; type: functional
RXF 393 = assay: Antiproliferative activity against human RXF 393 cells assessed as cell growth inhibition; type: functional
PC-3 = assay: Antiproliferative activity against human PC-3 cells assessed as cell growth inhibition; type: functional
HL-60(TB) = assay: Antiproliferative activity against human HL-60(TB) cells assessed as cell growth inhibition; type: functional
Hs-578T = assay: Antiproliferative activity against human Hs-578T cells assessed as cell growth inhibition; type: functional
OVCAR-3 = assay: Antiproliferative activity against human OVCAR-3 cells assessed as cell growth inhibition; type: functional
OVCAR-8 = assay: Antiproliferative activity against human OVCAR-8 cells assessed as cell growth inhibition; type: functional
A498 = assay: Antiproliferative activity against human A498 cells assessed as cell growth inhibition; type: functional
M14 = assay: Antiproliferative activity against human M14 cells assessed as cell growth inhibition; type: functional
K562 [25] = assay: Antiproliferative activity against human K562 cells assessed as cell growth inhibition; type: functional
DU-145 = assay: Antiproliferative activity against human DU-145 cells assessed as cell growth inhibition; type: functional
SF-539 = assay: Antiproliferative activity against human SF-539 cells assessed as cell growth inhibition; type: functional
NCI/ADR-RES = assay: Antiproliferative activity against human NCI/ADR-RES cells assessed as cell growth inhibition; type: functional
NCI-H322M = assay: Antiproliferative activity against human NCI-H322M cells assessed as cell growth inhibition; type: functional
BT-549 = assay: Antiproliferative activity against human BT-549 cells assessed as cell growth inhibition; type: functional
SN12C = assay: Antiproliferative activity against human SN12C cells assessed as cell growth inhibition; type: functional
NCI-H522 = assay: Antiproliferative activity against human NCI-H522 cells assessed as cell growth inhibition; type: functional
HCT-15 = assay: Antiproliferative activity against human HCT-15 cells assessed as cell growth inhibition; type: functional
KM12 = assay: Antiproliferative activity against human KM12 cells assessed as cell growth inhibition; type: functional
Tubulin [26] = assay: Inhibition of tubulin polymerization (unknown origin); type: protein-complex assay, Homo sapiens
LOX IMVI = assay: Antiproliferative activity against human LOX IMVI cells assessed as cell growth inhibition; type: functional

Sequence of Vascular endothelial growth factor receptor 2 (P35968 whole entry): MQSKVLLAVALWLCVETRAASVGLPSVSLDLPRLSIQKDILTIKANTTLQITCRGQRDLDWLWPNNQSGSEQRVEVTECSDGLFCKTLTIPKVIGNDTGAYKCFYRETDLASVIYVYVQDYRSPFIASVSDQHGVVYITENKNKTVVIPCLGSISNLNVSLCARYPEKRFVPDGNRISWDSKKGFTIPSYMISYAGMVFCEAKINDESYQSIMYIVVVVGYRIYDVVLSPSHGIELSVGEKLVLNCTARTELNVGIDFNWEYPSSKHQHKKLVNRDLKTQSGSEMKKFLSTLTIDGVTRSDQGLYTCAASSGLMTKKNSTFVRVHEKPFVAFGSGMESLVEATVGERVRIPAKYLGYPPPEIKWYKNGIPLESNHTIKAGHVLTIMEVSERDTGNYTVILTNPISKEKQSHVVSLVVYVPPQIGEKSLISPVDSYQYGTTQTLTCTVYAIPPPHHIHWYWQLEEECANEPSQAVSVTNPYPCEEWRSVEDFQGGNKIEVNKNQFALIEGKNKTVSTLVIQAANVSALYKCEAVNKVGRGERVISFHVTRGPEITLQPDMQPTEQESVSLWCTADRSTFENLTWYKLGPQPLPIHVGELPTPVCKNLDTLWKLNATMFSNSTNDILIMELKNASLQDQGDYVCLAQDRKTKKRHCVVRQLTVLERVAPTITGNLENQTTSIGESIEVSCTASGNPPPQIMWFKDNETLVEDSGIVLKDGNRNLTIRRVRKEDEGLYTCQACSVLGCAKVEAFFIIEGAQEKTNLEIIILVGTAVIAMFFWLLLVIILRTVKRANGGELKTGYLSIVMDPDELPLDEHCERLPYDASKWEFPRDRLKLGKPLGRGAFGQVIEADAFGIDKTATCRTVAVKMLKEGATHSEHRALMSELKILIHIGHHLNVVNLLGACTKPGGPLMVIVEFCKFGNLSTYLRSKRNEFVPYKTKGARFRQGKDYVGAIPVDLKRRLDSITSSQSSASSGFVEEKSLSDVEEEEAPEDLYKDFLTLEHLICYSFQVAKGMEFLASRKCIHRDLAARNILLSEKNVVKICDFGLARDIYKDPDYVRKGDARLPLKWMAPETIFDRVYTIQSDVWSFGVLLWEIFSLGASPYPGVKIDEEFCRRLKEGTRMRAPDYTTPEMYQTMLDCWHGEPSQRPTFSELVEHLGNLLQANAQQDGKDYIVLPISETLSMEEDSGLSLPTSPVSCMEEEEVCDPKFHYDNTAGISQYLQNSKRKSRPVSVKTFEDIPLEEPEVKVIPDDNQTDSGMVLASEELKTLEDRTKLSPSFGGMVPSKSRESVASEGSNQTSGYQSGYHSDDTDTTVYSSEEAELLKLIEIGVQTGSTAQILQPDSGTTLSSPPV
Sequence of Epidermal growth factor receptor (P00533 whole entry): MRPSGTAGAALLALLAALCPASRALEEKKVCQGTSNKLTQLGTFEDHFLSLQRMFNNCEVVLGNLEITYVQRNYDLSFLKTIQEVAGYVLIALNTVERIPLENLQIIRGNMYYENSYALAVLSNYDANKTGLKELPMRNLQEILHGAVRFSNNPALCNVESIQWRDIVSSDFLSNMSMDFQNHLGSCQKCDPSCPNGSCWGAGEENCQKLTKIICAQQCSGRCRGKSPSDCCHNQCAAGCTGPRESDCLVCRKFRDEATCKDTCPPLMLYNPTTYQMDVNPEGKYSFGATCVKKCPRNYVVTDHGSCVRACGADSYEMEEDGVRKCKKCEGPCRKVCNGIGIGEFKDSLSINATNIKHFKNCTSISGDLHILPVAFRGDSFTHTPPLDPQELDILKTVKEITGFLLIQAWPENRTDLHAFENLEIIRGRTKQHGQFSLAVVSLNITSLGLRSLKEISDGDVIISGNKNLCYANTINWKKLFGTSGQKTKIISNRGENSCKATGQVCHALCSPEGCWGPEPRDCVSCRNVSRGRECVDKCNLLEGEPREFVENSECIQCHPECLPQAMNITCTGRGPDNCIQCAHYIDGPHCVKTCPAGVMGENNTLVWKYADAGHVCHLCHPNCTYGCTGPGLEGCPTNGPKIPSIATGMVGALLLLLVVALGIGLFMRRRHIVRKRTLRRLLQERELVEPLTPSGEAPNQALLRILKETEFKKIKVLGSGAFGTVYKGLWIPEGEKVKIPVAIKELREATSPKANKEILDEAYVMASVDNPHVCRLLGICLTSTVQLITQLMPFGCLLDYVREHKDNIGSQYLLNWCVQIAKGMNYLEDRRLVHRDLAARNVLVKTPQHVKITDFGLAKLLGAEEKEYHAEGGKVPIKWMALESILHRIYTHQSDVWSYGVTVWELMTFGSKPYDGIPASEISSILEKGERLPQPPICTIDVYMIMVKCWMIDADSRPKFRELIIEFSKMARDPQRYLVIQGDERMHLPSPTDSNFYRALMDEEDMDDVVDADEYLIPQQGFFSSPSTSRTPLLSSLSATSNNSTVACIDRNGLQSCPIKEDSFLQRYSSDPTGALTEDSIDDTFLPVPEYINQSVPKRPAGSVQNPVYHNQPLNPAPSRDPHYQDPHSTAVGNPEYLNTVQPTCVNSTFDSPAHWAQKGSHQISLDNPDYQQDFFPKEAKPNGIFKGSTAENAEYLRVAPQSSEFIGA

CCCCC(C#CC(=O)OC)O/C=C/C(=O)OC (stereo unspecified)
IC50 (DLD-1): 450 nM

O=C(CCCc1ccc(-c2ccccc2F)cc1)Nc1ccc(O)cc1
EC50 (A 172): 600 nM | EC50 [1]: 600 nM | EC50 (U-251): 600 nM | EC50 [2]: 600 nM

CN(C)c1ccc(/C=C2/SC(=Nc3ccccc3Cl)NC2=O)cc1
inhibition in vivo at 30 mg/kg (NCI-H460 [3]): 60.4% | IC50 (NCI-H460 [4]): 800 nM | inhibition in vivo at 30 mg/kg (NCI-H460 [5]): 62.4% | IC50 (NCI-H460 [6]): 700 nM

COc1ccc(N(C)c2nc(C)nc3ccccc23)cc1OCCCC(=O)NO
IC50 (JeKo-1): 31 nM | IC50 (A-375): 31 nM | IC50 (NCI-H460 [7]): 31 nM | IC50 (HepG2): 31 nM | IC50 (HCT-116 [8]): 31 nM | IC50 [9]: 31 nM | IC50 (Ramos): 31 nM | IC50 (MM1.S): 31 nM | IC50 (MDA-MB-231): 31 nM | IC50 (A2780S): 31 nM | IC50 (MV4-11): 31 nM | IC50 (RPMI-8226): 31 nM | IC50 (HT-29): 31 nM | IC50 (SK-OV-3): 31 nM | IC50 [10]: 31 nM | IC50 (K562 [11]): 31 nM | IC50 [12]: 31 nM | IC50 (U-266): 31 nM | IC50 (MCF7 [13]): 31 nM | IC50 (A549 [14]): 31 nM

COc1ccc(O)c(C(=O)c2cnc3[nH]c4ccccc4c3c2)c1
IC50 (HL60/MX2): 320 nM | IC50 (MES-SA/Dx5): 160 nM | IC50 [15]: 400 nM

COc1ccc(S(=O)(=O)Nc2ccccc2NCc2ccc(C(=O)Nc3ccccc3N)cc2)cc1
IC50 (KB [16]): 22 nM | IC50 (KB [17]): 12 nM | IC50 (KB [18]): 12 nM

COc1ccc(-c2ocnc2-c2cc(Br)c(OC)c(OC)c2)cc1OCCCC(=O)NO
IC50 (EA.hy 926): 18 nM

COc1cc(C(=O)c2ccc3c(n2)C(=O)C(N2CCCC2)=CC3=O)cc(OC)c1OC
IC50 (KB [17]): 70 nM | IC50 (HONE1 cell line): 70 nM | IC50 (Tubulin [19]): 5900 nM | IC50 (HCT-116 [20]): 70 nM

COC(=O)NCCc1c(C(=O)c2cc(C(F)(F)F)cc(C(F)(F)F)c2)[nH]c2ccccc12
IC50 (A549 [21]): 2010 nM | IC50 (MCF7 [22]): 1300 nM

COc1ccc(-c2cc(=O)oc3c(O)c(O)ccc23)cc1O
IC50 [23]: 4900 nM | IC50 [24]: 5500 nM

COc1ccn2c(C(C)=O)cc(C(=O)c3ccc4c(c3)Sc3ccccc3N4)c2c1
GI50 (MDA-MB-435): 19 nM

COc1ccc(C(=O)c2cc(C)c(OC)c(C)c2)cc1OC(=O)CCl
GI50 (SNB-75): < 10 nM | GI50 (CCRF-CEM): < 10 nM | GI50 (SF-295): < 10 nM | GI50 (SW-620): < 10 nM | GI50 (RXF 393): < 10 nM | GI50 (PC-3): < 10 nM | GI50 (HL-60(TB)): < 10 nM | GI50 (Hs-578T): < 10 nM | GI50 (OVCAR-3): < 10 nM | GI50 (OVCAR-8): < 10 nM | GI50 (A498): < 10 nM | GI50 (M14): < 10 nM | GI50 (K562 [25]): < 10 nM | GI50 (DU-145): < 10 nM | GI50 (A549 [21]): < 10 nM | GI50 (MDA-MB-435): < 10 nM | GI50 (SF-539): < 10 nM | GI50 (MCF7 [22]): < 10 nM | GI50 (NCI/ADR-RES): < 10 nM | GI50 (NCI-H322M): < 10 nM | GI50 (BT-549): < 10 nM | GI50 (SN12C): < 10 nM | GI50 (NCI-H522): < 10 nM | GI50 (HCT-15): < 10 nM | GI50 (KM12): < 10 nM | IC50 (Tubulin [26]): 1300 nM | GI50 (LOX IMVI): < 10 nM

COC(=O)NCCc1c(C(=O)c2ccccc2[N+](=O)[O-])[nH]c2ccccc12
IC50 (A549 [21]): 740 nM | IC50 (MCF7 [22]): 1590 nM

COc1ccc(/C=C\c2cc(OC)c(OC)c(OC)c2)cc1O [COMBRETASTATIN A4]
IC50 (EA.hy 926): 11 nM

CC(=O)O[C@H]1C(=O)[C@@]2(C)[C@H]([C@H](OC(=O)c3ccccc3)[C@]3(O)C[C@H](OC(=O)[C@H](O)[C@@H](NC(=O)c4ccccc4)c4ccccc4)C(C)=C1C3(C)C)[C@]1(OC(C)=O)CO[C@@H]1C[C@@H]2O [PACLITAXEL]
inhibition in vivo at 30 mg/kg (NCI-H460 [3]): 40%
